For 62 molecules, AC50 results are on record in PubChem BioAssay AID463206 (Broad Institute, 2010).

Active and inactive are the calls of the source.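 Rule for the calls: active = caspase luminescence falls with dose and the half-maximal concentration AC50 from the fitted curve is at or below a set limit; inconclusive = flat fit at 30 to 70% signal loss, or invalid fit; inactive = AC50 above the limit, or signal rises instead.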 Some results are limits rather than exact numbers.

This assay concerns INS-1E cytokine-induced caspase-3/7, Caspase-Glo luminescence, 48 h. Kind of assay: suppression of cytokine-driven beta-cell apoptosis – INS-1E rat cells, luminescence, orthogonal assay for beta-cell apoptosis protection project, dose response (AID 463206).
`Cc1cc(NC2CCCCC2)nc(NCc2ccccc2)n1`: the AC50 (commonly the concentration giving half of the maximal activity seen) is > 26 µM (inactive).
For the molecule `Cc1cccc2sc(NNC(=O)c3ccc(S(=O)(=O)N4CC(C)CC(C)C4)cc3)nc12` (configuration not stated), the AC50 was > 26 µM (inactive).
`O=C(OCn1ncc(Cl)c(Cl)c1=O)c1ccc(F)cc1`: the AC50 is > 26 µM (inactive).
As for `Cc1cccc(C(=O)Nc2ccc(C(=O)/C=C/c3cccnc3)cc2)c1`, the AC50 is > 26 µM (inactive).
For `Cc1ccc(NC(=O)CCC(=O)N/N=C/c2ccc([N+](=O)[O-])o2)cc1C`, the AC50 was > 26 µM (inactive).
Take `CC(=O)NC(c1ccc(C(C)C)cc1)c1ccc2cccnc2c1O` (configuration not stated): the AC50 is > 26 µM (inactive).
To `COc1ccc(N=C2S/C(=C\c3ccc(N4CCOCC4)o3)C(=O)N2CCc2c[nH]c3ccccc23)cc1` belongs > 26 µM (inactive); to `CCc1ccc(CN(C)C(=O)c2cc(COc3cccc4cnccc34)on2)cc1`, > 26 µM (inactive).
As to `CC(=O)N1c2ccc(S(=O)(=O)N3CCC(C(=O)N4CCN(c5cccc(C(F)(F)F)c5)CC4)CC3)cc2CC1C` (configuration not stated), the AC50 is > 26 µM (inactive).
Turning to `C=CCn1c(C)c(/C=C/c2cc[n+](C)cc2)c2ccccc21`, the AC50 was > 26 µM (inactive).
With `Oc1ccc(Nc2nc(N3CCCC3)c3ccccc3n2)cc1`, the AC50 was 8.57 µM.
`O=C(NNC(=O)c1cccnc1SCc1cccc([N+](=O)[O-])c1)c1ccc(F)cc1`: the AC50 was > 26 µM (inactive).
On to `COc1ccc(/C=C/c2cc(-c3ccc(C)cc3)o[n+]2C)cc1`, for which the AC50 is > 26 µM (inactive).
For the molecule `Cc1ccc(N2C(=O)NC(=O)/C(=C\C=C\c3ccco3)C2=O)cc1C`, the AC50 is > 26 µM (inactive).
For the molecule `Cc1ccc(C(C)C)c(OCc2ccc(C(=O)N/N=C/c3ccc(O)cc3O)cc2)c1`, the AC50 is > 26 µM (inactive).
Take `Cc1cc(/C=N/n2cnnc2)c(C)n1-c1ccc(OCc2ccc(Cl)cc2Cl)cc1`: the AC50 was > 26 µM (inactive).
For the molecule `Cc1cccc(CNc2ncnc3ccc(-c4ccc5c(c4)OCCO5)cc23)c1`, the AC50 is > 26 µM (inactive).
To `O=C(Oc1c(CN2CCOCC2)cc(Cl)c2cccnc12)c1cccs1` belongs > 26 µM (inactive).
Consider `CC(=O)Nc1ccc(S(=O)(=O)Nc2ccc(N3CCCCC3)cc2)cc1`, for which the AC50 is > 26 µM (inactive).
As for `CCCCn1c(=N)n(CC(=O)c2ccc(Br)s2)c2ccccc21`, the AC50 was > 26 µM (inactive).
To `Cc1ccccc1OCCCCn1cnc2ccccc21` belongs > 12 µM (inactive); to `Cc1ccc(NC2=CC(=O)C(=O)c3ccccc32)cc1`, > 26 µM (inactive).
To `Cn1cccc1C1C=C(c2ccc(C(C)(C)C)cc2)Nc2ncnn21` (configuration not stated) belongs > 26 µM (inactive); to `CC(=O)c1sc(NC(=O)C2(F)C(F)(F)C(F)(F)C(F)(F)C(F)(F)C2(F)F)nc1C`, > 26 µM (inactive); to `O=C(CNc1ccc(F)cc1)N/N=C/c1c(O)ccc2ccccc12`, > 26 µM (inactive).
As for `CCOc1ccc(/C=N/Nc2ccc(Cl)nn2)c(O)c1`, the figure is > 26 µM (inactive); as for `Oc1ccc(/C=N/Nc2ncc(Br)cn2)c(O)c1`, > 26 µM (inactive).
As for `CC(C)c1ccc(/C=C(\c2nc3ccccc3[nH]2)S(=O)(=O)c2ccccc2)cc1`, the AC50 is > 26 µM (inactive).
With `Cc1ncc(CO)c(/C=N/Nc2ccc(C(F)(F)F)cn2)c1O`, the AC50 was > 26 µM (inactive).
Regarding `Cc1[nH]n(C2=NCCS2)c(=O)c1N=Nc1cccc(C(F)(F)F)c1`, the AC50 was > 26 µM (inactive).
`C(=N\Nc1nncc2ccccc12)/c1ccccn1`: the AC50 is > 26 µM (inactive).
Consider `Cc1cccc(NC2=C/C(=N/S(=O)(=O)c3cccs3)c3ccccc3C2=O)c1`, for which the AC50 is > 26 µM (inactive).
`Cc1ccccc1NC1=C/C(=N\S(=O)(=O)c2ccc(C(=O)O)cc2)c2ccccc2C1=O`: the AC50 is > 26 µM (inactive).
Take `C=C[C@H](CC(C)C)N(Cc1ccccc1)S(=O)(=O)N(Cc1ccc(OC)cc1)[C@H](C=C)CC(C)C`: the AC50 is > 26 µM (inactive).
As for `Cc1ccc2[nH]c3c(N4CCc5ccccc5C4)ncnc3c2c1`, the AC50 is > 26 µM (inactive).
As for `C/C(=N\NC(=O)COc1ccccc1-c1ccccc1)c1ccccn1`, the figure is > 26 µM (inactive); as for `Nc1c(Cl)ncnc1N/N=C/c1ccccn1`, > 26 µM (inactive).
As for `COc1ncnc(OC)c1S(=O)(=O)Nc1ccc(C(F)(F)F)cc1`, the figure is > 26 µM (inactive); as for `Cc1cccc(NC(=O)c2nc(S(=O)(=O)Cc3ccccc3)ncc2Cl)c1`, > 26 µM (inactive); as for `CC(=O)N1CCc2cc(S(=O)(=O)NCCC3=CCCCC3)ccc21`, > 12 µM (inactive).
Take `Cc1cc(C(=O)c2ccc3ccccc3c2)c(C)o1`: the AC50 is > 26 µM (inactive).
Regarding `CCOC(=O)/C(=C\c1ccccc1)C(=O)c1cc(C(C)=O)c(Nc2ccccc2)s1`, the AC50 is > 26 µM (inactive).
Regarding `O=C(c1cc(-c2ccccc2Cl)nc2ccccc12)N1CCN(c2ccccn2)CC1`, the AC50 was 3.83 µM.
Consider `CCc1ccc(NC(=O)CSc2ccc(-c3ccccn3)nn2)cc1`, for which the AC50 was > 26 µM (inactive).
For the molecule `COc1cc(NC2CCCCC2O)c2nc(-c3ccc(Cl)cc3)ccc2c1` (configuration not stated), the AC50 was > 26 µM (inactive).
Turning to `Cc1nc(C(=O)NNC(=O)c2c(-c3c(Cl)cccc3Cl)noc2C)cs1`, the AC50 was > 26 µM (inactive).
For `Cc1occc1C(=O)N1CCCC(N2CCN(c3cccc(C(F)(F)F)c3)CC2)C1` (configuration not stated), the AC50 was > 26 µM (inactive).
On to `Cc1nnc2ccc(Oc3ccc(-c4ccccc4)cc3)nn12`, for which the AC50 is > 26 µM (inactive).
Consider `Cn1ncc2c(N3CCN(c4ccc(Cl)c(Cl)c4)CC3)ncnc21`, for which the AC50 was > 26 µM (inactive).
As for `N#CC1=C(N)Oc2c(ccc3cccnc23)C1c1cccnc1` (configuration not stated), the figure is > 26 µM (inactive).
In the case of `Cc1ccc(C)c(S(=O)(=O)N2CCN(c3ncnc4sccc34)CC2)c1`, the AC50 is > 26 µM (inactive).
As to `Cc1ccc(C(=O)O/N=C/c2c(N3CCOCC3)n(C)c3ccccc23)cc1`, the AC50 was > 26 µM (inactive).
To `C/C(=N\NC(=O)c1ccc(NS(=O)(=O)c2cccs2)cc1)c1ccccn1` belongs > 12 µM (inactive); to `Cc1cccc(C2(c3cccc(C)c3)OC(=O)c3ccccc32)c1`, > 26 µM (inactive); to `CC(=O)c1c(C)oc2ccc(N(C(C)=O)S(=O)(=O)c3cccc4cccnc34)cc12`, > 26 µM (inactive).
With `O=C(N/N=C\c1ccc([N+](=O)[O-])s1)c1cncc(Br)c1`, the AC50 is > 26 µM (inactive).
As for `CC[N+]1=C(C)C(C)(C)c2cc(C)ccc21`, the AC50 is > 26 µM (inactive).
On to `Cc1nnc(N/N=C/c2ccccn2)[nH]c1=O`, for which the AC50 was > 26 µM (inactive).
On to `Cc1ccc(C)c(N2CCN(C(=O)CCCOc3cc(=O)n(C)c4ccccc34)CC2)c1`, for which the AC50 is > 12 µM (inactive).
To `COc1cc(OC)nc(-n2ncc(Br)c(Br)c2=O)n1` belongs > 26 µM (inactive); to `Cn1nc(C(C)(C)C)cc1C(=O)NCc1ccc(N2CCCC2=O)cc1`, > 26 µM (inactive); to `O=C(NCc1cccnc1)/C(=C\c1ccc(-c2ccc(Cl)c(Cl)c2)o1)S(=O)(=O)c1ccccc1`, > 26 µM (inactive).
